Results on 19 compounds are retold here after PubChem BioAssay (NCI).

Molecules are shown by their SMILES. “And” between values parts separate entries of the source, which are not always exact repeats. Identical values can stand only once.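 All cell lines were grown in 96-well plates and treated with compound for 48 hours. GI50 is the concentration that inhibits growth by half. TGI denotes the concentration required for complete inhibition of growth.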

Holding throughout (assay): NCI tumour cell line growth inhibition, 48 h
Assay [1] deals with HCC-2998 colon.
In assay [2] the test system is HCT-15 colon.
Assay [3] deals with HS 578T breast.
In assay [4] the test system is KM12 colon.
The test system of assay [5] is MOLT-4 leukemia.
In assay [6] the test system is OVCAR-3 ovarian.
In assay [7] the test system is SF-268 CNS.
For assay [8], the system named is SK-MEL-28 melanoma.
Assay [9] has as its system SN12C renal.
Assay [10] concerns T-47D breast.

As for `O=C(OCc1ccccc1)N1c2cc([N+](=O)[O-])ccc2C(=O)N2CCC[C@H]2C1O` (some centres not stated), the TGI in assay [1], in [2], in assay [3], in assay [4], in assay [5] and in assay [6] was over 100 µM each time. Also, the TGI in assay [7], in [8], in assay [9] and in assay [10] was over 100 µM in each case.
For the compound `CC1CCC2(CC1)N=C1CCC(C)CC1C1(CCC(C)CC1)N2` (configuration not stated), the TGI in assay [1] was over 100 µM; in assay [2], over 100 µM; in assay [3], over 100 µM; in assay [4], over 100 µM; in assay [5], 95.3 µM; in assay [6] it was over 100 µM. Moreover, the TGI in assay [8] and in assay [10] was over 100 µM each time.
For the compound `CC(=O)NC1=CC(=O)c2cc(C)cc(O)c2C1=O`, the TGI in [1] is 5.69 µM; in [2], 13.8 µM; in assay [3] it was over 84.5 µM; in assay [4] it was 33.4 µM; in assay [5] it was 24.2 µM; in [6], 8.37 µM. The TGI in assay [7] was determined as 22.6 µM; in [8] it was 1.54 µM; in assay [9], 14.2 µM; in [10], 35 µM.
As for `C/C=C\C(CC(=O)NCCC1CN(C(=O)c2ccccc2)c2ccccc21)CC(=O)OC` (configuration not stated), the TGI in [1], in [2], in assay [3], in [4], in [5] and in [6] was over 100 µM throughout. Also, the TGI in assay [7], in assay [8] and in assay [10] was over 100 µM in each case.
For `CC(C)CCC[C@@H](C)[C@H]1CCC2C3=CCC4C(=O)C=CC(=O)C4C3CC[C@@]21C` (some centres not stated), the GI50 in [1] is 0.274 µM; in assay [2], 0.235 µM; in assay [3], 0.528 µM; in [4], 0.338 µM; in [5] it was 0.373 µM; in [6], 0.348 µM. Besides, the GI50 in assay [7] was 0.566 µM; in assay [8] it was 0.449 µM; in assay [9], 0.256 µM; in assay [10], 0.174 µM. Besides, the TGI in assay [1] was 0.855 µM; in assay [2], over 100 µM; in assay [3] it was over 20.9 µM; in [4], over 100 µM; in assay [5] it was over 100 µM; in assay [7] it was over 100 µM. For the same compound, the TGI in assay [8] and in assay [9] was over 100 µM in each case.
For the compound `CCOc1cc(C2SCC(=O)N2c2nc3cc4sc(N5C(=O)CSC5c5ccc(O)c(OCC)c5)nc4cc3s2)ccc1O` (configuration not stated), the TGI in assay [1], in assay [2], in assay [3], in [4], in [5] and in assay [6] was over 100 µM in each case. The TGI in assay [7], in assay [8], in assay [9] and in [10] was over 100 µM each time.
`CCOC(=O)C(=Cn1c(=S)[nH]c2ccc([N+](=O)[O-])cc21)C(=O)OCC`: the TGI in [1], in assay [3], in assay [4], in [5], in assay [6] and in assay [7] was over 100 µM in each case. Besides, the TGI in [8], in assay [9] and in assay [10] was over 100 µM each time.
Take `O=C1C(N=Nc2ccc(-c3nc4ccccc4[nH]3)cc2)NC(=S)N1c1ccccc1` (configuration not stated): the TGI was 41.7 µM in assay [1]; 43.8 µM in assay [2]; over 100 µM in assay [3]; 37.5 µM in [4]; 48.8 µM in [5]; over 100 µM in [6]. In addition, the TGI in assay [7] was over 100 µM; in assay [8], over 100 µM; in [9], over 100 µM; in assay [10], 62.8 µM.
Regarding `CCC(C)C1(O)OC2CC3(C)OC(=CC3=O)/C(C)=C\C3OC(=O)C1(C)C32` (configuration not stated), the TGI in assay [1] was 30.1 µM; in assay [2], 17.3 µM; in assay [3] it was over 100 µM; in [4], 24.7 µM; in assay [5], over 100 µM; in [6], 42.6 µM. The TGI in assay [7] was over 100 µM; in assay [8] it was over 100 µM; in [9], 28.6 µM; in assay [10] it was 33.7 µM.
Take `O=C(O)/C=C/C(=O)O`: the TGI in [1], in assay [2], in [3], in assay [4], in [5] and in assay [6] was over 100 µM throughout. Also, the TGI in [7], in assay [8], in [9] and in assay [10] was over 100 µM throughout.
Take `Nc1ccc(-n2c(=O)oc3ccc(Cl)cc3c2=O)c(Cl)c1`: the GI50 in assay [1] was 0.377 µM; in assay [2], 0.138 µM; in assay [3] it was 0.081 µM; in assay [4], 0.255 µM; in assay [5] it was 0.368 µM; in assay [6] it was 0.107 µM. For the same compound, the GI50 is 0.108 µM in assay [7], 0.1 µM in assay [8], 0.0971 µM in assay [9] and 0.0679 µM in [10]. Also, the TGI was determined as 2.65 µM in assay [1]; 21.6 µM in [2]; 0.562 µM in [3]; 0.908 µM in assay [4]; 2.32 µM in assay [5]; 7.21 µM in [6]. The TGI in assay [7] came to 2.33 µM; in [8] it was 0.73 µM; in assay [9], 1.07 µM; in [10], 0.263 µM.
Take `O=c1[nH]c2ccccc2c2oc(-c3ccccc3)nc12`: the TGI is over 100 µM in [1]; over 100 µM in assay [2]; 71.9 µM in assay [3]; over 100 µM in assay [4]; 87.8 µM in assay [5]; over 100 µM in [6]. Also, the figures for the TGI in assay [7], in assay [9] and in assay [10] were 71.3 µM, 43.4 µM and over 100 µM, respectively.
For `COc1ccc(C2=CN3CCC[C@H]3C=C2c2cc(O)c(OC)c(OC)c2)cc1OC`, the TGI in [1] was 0.0412 µM and 0.0431 µM; in [3], 0.036 µM; in assay [4], 0.0394 µM; in [5], 0.183 µM and 0.393 µM; in assay [6], 0.0669 µM and 0.0274 µM; in [7] it was 0.112 µM. Besides, the TGI is 0.101 µM and 0.0107 µM in [8]; 0.0568 µM and 0.189 µM in assay [9]; 0.0938 µM in assay [10].
Consider `Cc1cccc2c1C/C(=C\c1cccc(C)c1C(=O)O)C2=O`, for which the TGI in [1], in assay [2], in assay [3], in assay [4], in assay [5] and in assay [6] was over 100 µM in each case. Moreover, the TGI in [7], in [8], in [9] and in [10] was over 100 µM each time.
On to `O=C1C[C@H](c2ccccc2)C2(C(=O)c3ccccc3C2=O)[C@H](c2ccccc2)C1`, for which the TGI in assay [1], in assay [2], in assay [3], in assay [4], in assay [5] and in [6] was over 100 µM in each case. For the same compound, the TGI in [8], in assay [9] and in assay [10] was over 100 µM each time.
Regarding `COC(=O)CCN(CCC(=O)OC)C1CC1`, the TGI in [1], in assay [2], in [3], in assay [4], in assay [5] and in assay [7] was over 100 µM each time. Also, the TGI in assay [8], in [9] and in assay [10] was over 100 µM in each case.
For `Cc1c(F)c(N)c2c(=O)cc(-c3ccc(NC(=O)C(N)CCCN=C(N)N)c(F)c3)oc2c1F` (configuration not stated), the TGI is over 100 µM in [1]; over 100 µM in assay [2]; 71.9 µM in [3]; 99.7 µM in assay [4]; over 100 µM in assay [5]; over 100 µM in [7]. The TGI in [8] was 63.6 µM; in [9] it was 45.2 µM; in [10], over 100 µM.
For the compound `COC1/C=C/C(C)C(C(C)C(OC)C(C)CCC(=O)C(C)C(C/C=C/N(C)C=O)OC)OC(=O)/C=C/C=C(\C)CC(OC)C(OC)C2=CC(=O)O[C@@H](C(C)C(OC)CC(OC)/C=C/C(C)C(O)C1)[C@H]2O` (some centres not stated), the TGI in assay [1] is 0.359 µM; in assay [2], 0.329 µM; in assay [3], 0.16 µM; in assay [4], 3.02 µM; in assay [5], over 100 µM; in assay [6] it was 0.277 µM. Further, the TGI in assay [7] was determined as 0.407 µM; in [8] it was 0.878 µM; in assay [10], 0.538 µM.
As to `O=C(O)c1ccc(Nc2nc3ccccc3nc2C(=O)O)cc1`, the TGI in assay [1], in assay [3], in [4], in assay [5], in [6] and in [7] was over 100 µM each time. Besides, the TGI in assay [8], in assay [9] and in assay [10] was over 100 µM throughout.
